US20070025976A1, “Process for the purification of coenzyme Q10” (Cargill, Inc., priority 2005, published 2007)

Assay: Solubility of pure CoQ10 in ethanol
Assay type: physicochemical
Description: The chromatography product from Example 8 is dissolved in 200 proof ethanol to create a 9 wt-% solution at 55° C. This should create a slightly sub-saturated solution. Table VI below provides solubility data for pure CoQ10 in ethanol.

COC1=C(OC)C(=O)C(C/C=C(\C)CC/C=C(\C)CC/C=C(\C)CC/C=C(\C)CC/C=C(\C)CC/C=C(\C)CC/C=C(\C)CC/C=C(\C)CC/C=C(\C)CCC=C(C)C)=C(C)C1=O [CoQ10, 2,3 dimethoxy-5 methyl-6 decaprenyl benzoquinone]
Solubility (30 °C): 0.38 g/100 g Solvent
Solubility (50 °C): 8.99 g/100 g Solvent
Solubility (60 °C): 11.0 g/100 g Solvent
